Data set [1] in a line: Initial screening of SHG response of powdered samples at 1064 nm. Type of data set: physicochemical. Conditions: ungraded powder between glass plates, pulsed Nd:YAG laser 1064 nm, green light judged by eye against ungraded urea or ADP. From the text:
Samples of all of the materials prepared as described above were first subjected to an initial screening with the results shown in Table 1. For this examination ungraded (as to size) powdered samples of each material were sandwiched between two glass plates which were then held in the path of a pulsed Nd:YAG laser operating at 1064 nm. (Model SL804 from Spectron Laser Systems Ltd). The SHG response was judged by viewing the intensity of green light generated (viewed through laser goggles which passed green light but stopped the fundamental 1064 nm radiation). The SHG activity was qualitatively compared to that of a reference sample which was either ungraded urea or ammonium dihydrogen phosphate (ADP).

Data set [2] can be described thus: Kurtz and Perry assessment of phase matching properties. It counts as physicochemical. Conditions: graded powders 550 μm to 40 μm, 12 ns pulses at 1064 nm, fixed input pulse energy. How it is done: The phase matching properties of those more promising materials which performed well in the initial screening have been evaluated using the well established Kurtz and Perry technique (J Appl Phys, 1968, 39, 3798). In this method the SHG intensity (λ=532 nm) is measured as a function of the particle size for a fixed input pulse energy. […] The consequence of this is that the harmonic fields can build up in amplitude thus making the material more desirable for SHG applications.
To perform the Kurtz and Perry test powdered samples of the materials were graded using a mechanical shaker set up with a set of standard sieves (550 μm to 40 μm). The graded powders were then mounted in a thin aluminium holder placed between two glass slides. The following criteria was used to ensure the validity of the method: r<L<D where, • r=average particle size • L=thickness of the powdered sample (i.e. thickness of the aluminium spacer) • D=diameter of the laser beam incident on the sample. In the present experiments, there was at least an order of magnitude difference between these parameters.
The same laser as before was used to provide 12 ns FWHM pulses at 1064 nm. […] The magnitude of the SHG signal was measured as the number of counts using an Optical Multichannel Analyser (OMA) with an intensified array. This was preferred to a photomultiplier tube as it enabled the presence of any fluorescence or abnormal spectral emissions from the sample, for example due to damage etc., to be determined.

For data set [3] the following is noted: crystals grown from solution by lowering temperature. As to the method: Crystals of M4, M35 and M3 were grown from solution by lowering the temperature of the saturated solutions. The crystal growth equipment consists of a heated tank of water into which the vessel containing the saturated solution of the material is held. The glass tank is heated through a UV block filter by an infra-red lamp. The temperature is controlled by a mercury contact thermometer. The glass tank is covered by aluminium foil to exclude UV in sunlight from entering the glass tank.
(§1) Crystals of M4 have been grown using the equipment described above, both from ethanol and IPA by reduction of temperature of the saturated solutions (12 g of M4 in 820 ml of ethanol) from 40° C. to 25° C. A seed crystal, which had been previously washed with a solvent was suspended from a stirrer and carefully introduced into the saturated solution. […] Several temperature decay rates were tried.
The solubility of M35 has been determined in isopropyl alcohol/water (10:1 ratio) mixture over a temperature range of 5° C. to 40° C.

For data set [4] the following is noted: judged by eye. From the text: The capability for novel materials of the invention to achieve frequency doubling into the blue area of the spectrum was examined. The light source for this investigation was a MOPO (Master Oscillator Power Oscillator) model 730-10 pumped by GCR 270-10 Nd:YAG laser (supplied by Spectra Physics). The incident pulse width output from this laser ranged from 4 ns to 6 ns. Light of a specified wavelength was directed onto a sample sandwiched between two plates in a sample holder. In order to determine the energy which was incident on a sample for each test wavelength, the sample holder was movable in and out of the light beam and an energy meter was located behind the sample position so that the light beam would be directed onto the meter when a sample was not in position. The test wavelengths used were 950 nm, 850 nm, 800 nm and 780 nm. The energy meter was a Scientech AD30 meter employing a calorimetric detector type AC2501H supplied by Scientech.
Samples of the M4, M3 and M35 materials were tested for frequency doubling effect at each of the test wavelengths, the performance of each sample being judged qualitatively by eye by examination of the frequency doubled radiation scattered from the sample. These qualatative assessments were compared with that of a similarly prepared sample of urea having the same particle size as the materials of the invention. […] The M3 and M4 samples were ungraded while the M35 sample was a 212–300 μm graded sample.

How the values of data set [5] were obtained: as §1
The conditions of data set [6]: transmission spectrum.
The nature of data set [7]: Crystal stability on storage. To be noted: on standing after removal from growing solution or in sealed container. It counts as physicochemical.
The mark [8] stands for this setting: wavelength 780 nm, energy 16.7 mJ.
Setting [9] is: wavelength 800 nm, energy 14.8 mJ.
The mark [10] stands for this setting: wavelength 850 nm, energy 12.3 mJ.

“Also recorded” adds a separate entry of the source. Where two headings read alike, the source gives them in different places.

Consider “thiomorpholinium 3,5-dihydroxybenzoate [TM35]”, for which the “SHG Response” value in data set [1] was “slightly better than for urea”.
Consider `N.O=P(O)(O)O` [ADP, ammonium dihydrogen phosphate, reference compound], for which the “Phase matching (SHG signal level at 532 nm as a function of particle size)” value (shortened to “Phase matching”) in data set [2] is reported as “phase matching materials”.
On to “Morpholinium 4-hydroxybenzoate [Example M4]”, for which, in data set [3], the “SHG activity of grown crystals” value was “high SHG activity”. Moreover, in data set [2], the “Phase matching” value is listed as “does not decrease for increasing particle size”. For the same compound, the “SHG Response” value in data set [1] is “better than for urea”. For the same compound, the “Frequency doubling compared with urea” value is “Slightly less” in data set [4] (setting [8]); “Slightly less” in data set [4] (setting [9]); “Slightly less” in data set [4] (setting [10]); “Better” in data set [4] (wavelength 950 nm, energy 9 mJ). Further, in data set [5] (IPA compared with ethanol), the Relative solubility result is recorded as “less soluble in IPA”. Besides, the “Amount in saturated solution” value in data set [5] (in 820 ml of ethanol, saturated solution, 40° C.) came to 12 g.
As for “dimorpholinium 2,3,5,6-tetrafluoro-4-hydroxybenzoate [Example M24F4]”, the “SHG Response” value in data set [1] was “weaker than that of urea but better than for ADP”.
Take “Morpholinium 3,5-dihydroxybenzoate [Example M35]”: in data set [6], the “Optical transparency limit of single crystal” value was not below 350 mm. For the same compound, in data set [3], the “SHG activity of grown crystals” value was “high SHG activity”. Further, the “Phase matching” value in data set [2] is listed as “does not decrease for increasing particle size”. Besides, the “SHG Response” value in data set [1] was “slightly better than urea”. Besides, the “Frequency doubling compared with urea” value in data set [4] (setting [8]) was “better”; in data set [4] (setting [9]), “slightly less”; in data set [4] (setting [10]), “same or better”; in data set [4] (wavelength 950 nm, energy 9 mJ), “same or better”. Also, the Stability of crystals result in data set [7] was “stable and do not show any deterioration in quality”.
Take `NC(N)=O` [urea, reference compound]: the “Phase matching” value in data set [2] is “phase matching materials”.
In the case of “Morpholinium 3-fluoro-4-hydroxybenzoate [Example M3F4]”, in data set [1], the “SHG Response” value is listed as “slightly weaker than that of urea”.
Regarding “Morpholinium 3-hydroxybenzoate [Example M3]”, in data set [3], the “SHG activity of grown crystals” value is recorded as “exhibit SHG activity”. For the same compound, the “Phase matching” value in data set [2] is reported as “does not decrease for increasing particle size”. In data set [1], the “SHG Response” value was “slightly weaker than urea”. Moreover, the “Frequency doubling compared with urea” value in data set [4] (setting [8]) is “Less”; in data set [4] (setting [9]) it was “Much less”; in data set [4] (setting [10]), “Less”; in data set [4] (wavelength 950 nm, energy 9 mJ), “Slightly less”.
On to “thiomorpholinium 4-hydroxybenzoate [TM4]”, for which the “SHG Response” value in data set [1] is given as “slightly better than for ADP”. Moreover, in data set [7], the Stability of crystals result is listed as “unstable, with the crystals becoming opaque over time”.
On to “Morpholinium 4-hydroxycinnamate [Example M4HCA]”, for which the “SHG Response” value in data set [1] is “greater than that of urea; also recorded: better than urea”.

For the origin of these results see patent publication US7081984B1, “Non-linear optical devices and materials therefor” (Qinetiq Limited, priority 1999, dated 2006).
